Laboratory results as given in patent US20020160441A1, “Protein elongation factor 2 as a target for antifungal and antiparasitic agents” (Merck & Co., Inc., priority 1998, published 2002).

How the values were obtained:
[1] = biological target: T1, Saccharomyces cerevisiae EF2 in crude S30 extracts (Saccharomyces cerevisiae, UniProt P32324); assay: Competitive binding assay, Saccharomyces S30 extract; settings: for displacement of ^3H-Compound I binding (in words): unlabelled competitor
T1 construct: A Saccharomyces cerevisiae strain containing wild-type EF2 is inoculated into medium; endogenous in cells; host or cells: Saccharomyces cerevisiae strain with wild-type EF2, S30 extract
Description: (§1) A competitive assay can be performed involving the displacement of a radiolabeled compound with specificity for pathogen EF2 such as ^3H-Compound I binding to Saccharomyces cerevisiae EF2 in crude S30 extracts. As proof of the specificity of inhibitor found with the S30 binding assay, binding competition can also be performed with purified EF2 in the presence of washed ribosomes
In a microfuge tube 100 μl assay mixture contains: 10 μg yeast S-30, 25 μM GTP-γ-s (0.5 μl of 5 mM stock), dilutions of agent to be examined for ability to compete for binding and Buffer B to bring volume to 98 μl. Vortex and incubate at room temperature 5 min. Add 2 μl ^3H-Compound I (1:20 dilution in water). Vortex and incubate for 20-30 min.
To a Sephadex G-75 column was pre-soaked in Buffer A (20 gm/400 ml) several hours. Mini columns were packed with G-75 precisely to the mark line (˜1.6 ml ) and allowed to settle by washing with 2 ml Buffer A.
The 100μl incubated mixtures are loaded onto G-75 columns (no collection) As soon as the sample has entered the gel bed (approximately 20 sec), 0.7 ml Buffer A is added and eluate is collected in mini vials 3 ml Scintiverse is added and vials counted.
Saccharomyces S30 extract: A Saccharomyces cerevisiae strain containing wild-type EF2 is inoculated into medium containing in g/l: 10 g Bacto Yeast Extract, 20 g Bacto Peptone, 20 g dextrose and 60 mg adenine and incubated with shaking at 30° C. until mid to late logarithmic phase (A600˜2). The cells are harvested and washed twice with water. Pellets may be stored at −70° C. indefinitely prior to disruption. For breakage, cells are resuspended in 2 vol of buffer containing 50 mM Tris-Cl pH 7.4, 10% (wt/vol) glycerol, 2 mM MgCl2, 2 mM dithiothreitol, 1 mM phenylmethylsulfonyl fluoride and broken by prolonged agitation with acid-washed 0.5 mm glass beads. The supernatant is centrifuged at […] for 15 min to sediment cell debris.

[2] = system: mammalian cell S30 extracts; assay: Binding assay with mammalian cell S30 extracts
Excerpt: as §1
(§2) The binding is displaceable by unlabelled L-793,422, sordarin and analogs. No binding is seen with mammalian cell or wheat germ S30 extracts.

wheat germ S30 extracts = assay: Binding assay with wheat germ S30 extracts
Excerpt: as §1, §2

[3] = biological target: T2, purified Saccharomyces EF2 (Saccharomyces cerevisiae, UniProt P32324); assay: Binding assay with purified components, Saccharomyces EF2; settings: for binding of labelled compound (in words): yeast EF2
T2 construct: The ribosomes and EF2 are both prepared by published methods; endogenous in cells; host or cells: Saccharomyces cerevisiae; EF2 purified by the method of Skogerson, Methods in Enzymology LX
Description: (§3) This assay involves the same procedure as disclosed above substituting 0.4 A260 units salt-washed S. cerevisiae ribosomes and 1 pmol purified EF2 for the 10 μg S30 in the above assay. The ribosomes and EF2 are both prepared by published methods (L. Skogerson, Methods in Enzymology, Vol LX,p676-685).
(§4) As with the S30 binding assay, this assay may be used to either identify the component binding drug, or to examine competition by unknown agents.

rat EF2 = biological target: T3, rat EF2 (Rattus norvegicus, UniProt P05197); assay: Binding assay with purified components, rat EF2; settings: yeast EF2 replaced by rat (liver) EF2
T3 construct: from tissue; host or cells: rat liver
Description: as §3, §4

wheat germ EF2 = assay: Binding assay with purified components, wheat germ EF2; settings: yeast EF2 replaced by wheat germ EF2
Description: as §3, §4

[4] = system: S. cerevisiae sordarin sensitive strain (sS1); assay: Growth inhibition assay I, sordarin sensitive strain; type: cell-based; settings: Saccharomyces cerevisiae; 0.5 μg applied; agar plate, 30° C., 16-24 hours; read-out: clear zone of inhibition
Excerpt: (§5) An assay has been developed to identify antifungal compounds with sordarin like activities using S. cerevisiae as as a surrogate organism. It consists of a two plate differential zone assay using sordarin sensitive (sS1) and resistant strains (sR1) that contain an erg6 deletion, which increases membrane permeability and facilitates the uptake of various substances. In this screen, active compounds show a clear zone on the sensitive strain plate and no zone for the resistant strain plate.
(§6) Approximately 1×10^6 cells per ml are added to growth medium containing 2% agar. Medium and cells are mixed, poured into plates, and allowed to solidify. Test compounds or fermentation extracts are applied with the intent of identifying samples which inhibit the growth of these yeast. The cultures are incubated at 30° C. for 16-24 hours. A similar assay can also be run in a high-throughput microtiter format by inoculating cells into liquid growth medium containing test compounds or fermentation extracts. Active compounds can be identified by assaying for growth inhibition, which can be determined by measuring the optical density of the individual cultures.

[5] = system: S. cerevisiae sordarin resistant strain (sR1); assay: Growth inhibition assay I, sordarin resistant strain; type: cell-based, Saccharomyces cerevisiae; settings: 0.5 μg applied; agar plate, 30° C., 16-24 hours
Excerpt: as §5, §6

T1 sequence (P32324 whole entry): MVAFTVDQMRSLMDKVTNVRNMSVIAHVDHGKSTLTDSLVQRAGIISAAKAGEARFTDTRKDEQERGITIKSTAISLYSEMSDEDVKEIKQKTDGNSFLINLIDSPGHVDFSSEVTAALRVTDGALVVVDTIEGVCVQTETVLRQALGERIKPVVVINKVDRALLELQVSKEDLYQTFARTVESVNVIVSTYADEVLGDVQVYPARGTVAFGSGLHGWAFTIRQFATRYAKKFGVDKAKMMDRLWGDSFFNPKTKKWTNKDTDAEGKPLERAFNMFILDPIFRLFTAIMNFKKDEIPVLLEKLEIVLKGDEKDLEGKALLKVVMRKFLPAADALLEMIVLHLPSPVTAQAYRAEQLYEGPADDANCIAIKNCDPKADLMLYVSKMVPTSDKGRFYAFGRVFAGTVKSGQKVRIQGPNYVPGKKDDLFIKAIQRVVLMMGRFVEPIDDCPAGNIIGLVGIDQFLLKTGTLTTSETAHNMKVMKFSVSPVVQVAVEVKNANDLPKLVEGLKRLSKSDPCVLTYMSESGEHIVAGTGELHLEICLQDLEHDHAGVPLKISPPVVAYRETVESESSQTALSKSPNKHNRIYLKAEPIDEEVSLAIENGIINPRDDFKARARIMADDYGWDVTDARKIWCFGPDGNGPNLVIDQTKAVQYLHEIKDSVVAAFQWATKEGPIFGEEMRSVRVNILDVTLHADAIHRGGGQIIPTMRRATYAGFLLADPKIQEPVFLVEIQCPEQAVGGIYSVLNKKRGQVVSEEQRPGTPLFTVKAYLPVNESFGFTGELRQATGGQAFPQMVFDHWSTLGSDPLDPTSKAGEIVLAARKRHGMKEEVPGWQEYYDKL
T2 sequence (P32324 whole entry): as above

Row | SMILES | displacement of ^3H-Compound I binding (in words) ([1]; Saccharomyces S30 extracts) | amount of labelled compound bound ([1]; 10 μg S30 extract from wild-type Saccharomyces) | binding of labelled compound (in words) ([1]; Saccharomyces S30 extracts) | binding of labelled compound (in words) [2] | binding of labelled compound (in words) (wheat germ S30 extracts) | amount of labelled compound bound ([3]; 0.65 pmol purified Saccharomyces EF2 plus 4 pmol purified Saccharomyces ribosomes) | binding of labelled compound (in words) ([3]; yeast ribosomes replaced by rat (liver) ribosomes, listed as 3H-L793,422) | binding of labelled compound (in words) ([3]; yeast ribosomes replaced by rat (liver) ribosomes, listed as labelled compound) | binding of labelled compound (in words) ([3]; yeast ribosomes replaced by wheat germ ribosomes, listed as 3H-L793,422) | binding of labelled compound (in words) ([3]; yeast ribosomes replaced by wheat germ ribosomes, listed as labelled compound) | binding of labelled compound (in words) (rat EF2; listed as 3H-L793,422) | binding of labelled compound (in words) (rat EF2; listed as labelled compound) | binding of labelled compound (in words) (wheat germ EF2; listed as 3H-L793,422) | binding of labelled compound (in words) (wheat germ EF2; listed as labelled compound) | IC50 ([1]; 10 μg S30 extract from wild-type Saccharomyces, read-out: IC50 for displacement of ^3H-Compound I binding (converted)) | zone of inhibition at 0.5 µg/disc [4] | zone of inhibition (in words) [5]
1 | CC(C)COCC12CC3C(C)CCC3[C@@]3(C=O)C[C@@H]1C=C(C(C)C)[C@@]23C(=O)O (stereo partly drawn) [Compound I] | displaceable |  |  |  |  |  |  |  |  |  |  |  |  |  |  |  | 
2 | CC(C)COCC12CC3C(C)CCC3[C@@]3(C=O)C[C@@H]1C=C(C(C)C)[C@@]23C(=O)O (stereo partly drawn) [^3H-Compound I] |  | approximately 0.5 pmol | Specific binding | No binding | No binding | approximately 0.6 pmol | no effect on binding | does not reduce binding | no effect on binding | does not reduce binding | abolishes binding | abolishes binding to background levels | abolishes binding | abolishes binding to background levels |  |  | 
3 | CO[C@H]1[C@@H](O)[C@H](O)[C@H](OC[C@@]23C[C@@H]4[C@H](C)CC[C@H]4[C@@]4(C=O)CC2C=C(C(C)C)[C@@]34C(=O)O)O[C@@H]1C [sordarin, reference compound] | displaceable |  |  |  |  |  |  |  |  |  |  |  |  |  | 6.09 nM | 20 mm | no zone
